One test relates to LN229/GSCs. As to the kind of experiment: MTS survival, LN229/GSCs. It counts as cell-based, human. Conditions: 100 µM, 4 days. How it is done:
Cells were plated in 96-well plates (2000–5000 cells per well) and treated the following day with TMZ (10, 50, or 100 μM), antennapedia, JM2-scrambled, or JM2 (10, 50, or 100 μM). After 4 days, cell viability was monitored following addition of MTS reagent (Promega) according to manufacturer’s instructions. The absorbance at 490 nm was measured using a SpectraMax i3 or iD3 microplate reader (Molecular Devices). For the caspase 3/7 activity assay, cells were plated in 96-well plates (2000 cells per well) and treated with TMZ or peptides as described above. The activity of caspase 3/7 was measured after 48 h using the Caspase-Glo® 3/7 assay (Promega) following the manufacturer’s instructions. Fold change of caspase 3/7 activity was defined as the ratio of caspase 3/7 luminescence in treated cells compared to controls.

In another test the test system is Notch1. As to the kind of experiment: Notch1 protein expression, immunoblot, VTC-001 GSCs. It counts as cell-based, human. Conditions: 50 μM, 24 h. As to the method:
Cells were lysed in RIPA buffer (0.1% sodium dodecyl sulphate, 50 mM Tris pH 7.4, 150 mM NaCl, 1 mM EDTA, 1% Triton X-100, 1% deoxycholic acid, 200 μM Na3VO4, and 1 mM NaF) supplemented with Halt^TM Protease and Phosphatase Inhibitor Cocktail (Thermo Fisher). Lysates were sonicated prior to centrifugation at 4 °C for 20 min at 10,000 x g. Protein concentration was quantified using the DC protein assay (Bio-Rad Laboratories) and a standard curve obtained with increasing concentrations of Bovine Serum Albumin (BSA; Fisher Scientific). Protein samples were normalized to 20 μg total protein per lane and resolved by SDS-PAGE electrophoresis. 4X Bolt LDS sample buffer supplemented with 400 mM DTT (final concentration 1X Bolt LDS with 100 mM DTT) was added to samples before heating at 70 °C for 10 min. SDS-PAGE was run using NuPAGE Bis-Tris 4%–12% gradient gels (Thermo Fisher) with MES or MOPS running buffer according to manufacturer’s instructions. Spectra™ Multicolor Protein Ladder (Thermo Fisher) or Precision Plus Protein™ Kaleidoscope™ Prestained Protein Standards (Bio-Rad Laboratories) were included as protein ladders on the same gels. […] Membranes were imaged on a ChemiDoc™ imaging system, and analyzed with Image Lab software (Bio-Rad Laboratories). […]
(In general: Immunoblotting shows a protein as a band on a membrane.)

Consider VFFKGVKDRVKGRSD [JM2], for which the “LN229/GSC survival (MTS)” value in the test with LN229/GSCs was “significantly decreased LN229/GSC survival after 4 days”. The Notch1 protein expression result in the test with Notch1 is reported as “significantly decreased Notch1 expression at the protein level”.

The values are drawn from publication PMC12084297, “Cytoplasmic connexin43-microtubule interactions promote glioblastoma stem-like cell maintenance and tumorigenicity” (Cell Death & Disease, 2025).
